From patent US7045343B2, “Sterilization indicator test packs” (3M Innovative Properties Company, priority 1998, dated 2006)

System: Bacillus stearothermophilus spores
Test: Spore outgrowth (color change) of indicators after prevacuum steam sterilization
Format: cell-based
Details: 4-pulse prevacuum steam 121° C.
Procedure, shortened: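 Bacillus stearothermophilus ATCC 7953 spores were cleaned, mixed into a heated sterilant-resistant coating chemical solution and pipetted onto paper strips at about 1×10^6 spores per strip. The strips were dried and placed in indicators, then exposed to a 4-pulse prevacuum steam cycle at 121° C. After exposure the media ampoule was crushed, and growth was judged visually as a purple-to-yellow color change after 168 hours at 60° C.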

[1] = Example 4, 50 mg/ml coating, 7–18 min

Substance	NO. GROWTH POSITIVE 168 HR [1]	NO. GROWTH POSITIVE 168 HR (Example 4, 100 mg/ml coating, 7–18 min)	NO. GROWTH POSITIVE 168 HR (Example 1, 10 mg/ml coating, 7–13 min)	NO. GROWTH POSITIVE 168 HR (Example 1, 20 mg/ml coating, 7–13 min)	NO. GROWTH POSITIVE 168 HR (Example 1, 40 mg/ml coating, 7–13 min)	NO. GROWTH POSITIVE 168 HR (Example 1, 80 mg/ml coating, 7–13 min)	NO. GROWTH POSITIVE 168 HR (Example 1, 100 mg/ml coating, 7–13 min)	GROWTH POSITIVE 168 HR (Example 3, 100 mg/ml coating, 7–15 min)
Decaglyceryl Decaoleate	31	30						
Decaglyceryl Monostearate	29		39	34	59	55	34	20
